The values that follow come from patent US9963462B2 (priority 2015, dated 2018).

In assay [1] the test system is BH4 production in human peripheral blood mononuclear cells (PBMCs). Nature of the assay: hPBMC assay, inhibition of BH4 production by LC-MS (anti-CD3/anti-CD28 stimulated). In kind it is cell-based. To be noted: PBMC, read-out: hPBMC IC50.
Assay [2] addresses SNAP-hSPR (sepiapterin reductase, SPR) (Homo sapiens, UniProt P35270). Nature of the assay: biochemical. In kind it is binding. To be noted: terbium labelled SNAP-hSPR / SSZ labelled SNAP-EGFP; read-out: hTR-FRET IC50.
Text: TR-FRET Assay: A TR-FRET (homogeneous, time-resolved, fluorescence resonance energy transfer) assay was used to assess activity of compounds following standard assay conditions. […] Compounds were screened at different concentrations and IC50 values calculated.
Terbium labelled SNAP-hSPR and SSZ (sulfasalazine) labelled SNAP-EGFP were used as the protein pair in this assay. Compounds were screened at different concentrations, and 1050 and Kd values calculated.

Chain of SNAP-hSPR (sepiapterin reductase, SPR) (P35270 whole entry): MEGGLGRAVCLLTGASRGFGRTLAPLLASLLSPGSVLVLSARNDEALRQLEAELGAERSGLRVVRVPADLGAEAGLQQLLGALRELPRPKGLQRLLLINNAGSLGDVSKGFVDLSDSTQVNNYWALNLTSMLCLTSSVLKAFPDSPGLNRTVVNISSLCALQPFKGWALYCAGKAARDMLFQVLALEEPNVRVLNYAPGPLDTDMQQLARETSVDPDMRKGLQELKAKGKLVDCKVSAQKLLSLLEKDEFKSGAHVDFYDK

For `C=CCC(C#N)(CC=C)C1CCN(C(=O)c2cnn(-c3nn4cccc4c(=O)[nH]3)c2C)CC1` [Q-1110], the values for the IC50 in assay [1] and in assay [2] were 43 nM and 2 nM, respectively.
The corresponding values for `Cc1c(C(=O)N2CCC(c3cccnc3Cl)CC2)cnn1-c1nn2cccc2c(=O)[nH]1` [Q-1111] are 15 nM and 1 nM.
The corresponding values for `CCC(=O)C1CCN(C(=O)c2cnn(-c3nn4cccc4c(=O)[nH]3)c2C)CC1` [Q-1112] are 37 nM and 1 nM.
For `CCC(=O)C1CCN(C(=O)c2cnn(-c3nc4c(c(=O)[nH]3)CCC4)c2C)CC1` [Q-1113], in that order: 16 nM and 1 nM.
On to `Cc1c(C(=O)N2C3CCC2CN(C2CCC2)C3)cnn1-c1nn2cccc2c(=O)[nH]1` [Q-1114], for which the values for the IC50 in assay [1] and in assay [2] were 24 nM and 1 nM, respectively.
For `Cc1c(C(=O)N2CCC(c3ccc(F)cn3)CC2)cnn1-c1nn2cccc2c(=O)[nH]1` [Q-1115], in that order: 45 nM and 1 nM.
For `Cc1c(C(=O)N2CCC(c3ccc(Cl)nc3)CC2)cnn1-c1nn2cccc2c(=O)[nH]1` [Q-1116], in that order: 76 nM and 1 nM.
For `Cc1c(C(=O)N2CCC(c3cccc(F)n3)CC2)cnn1-c1nn2cccc2c(=O)[nH]1` [Q-1117], in that order: 20 nM and 1 nM.
On to `Cc1c(C(=O)N2CCCC(O)(C(F)(F)F)CC2)cnn1-c1nn2cccc2c(=O)[nH]1` (centres unmarked) [Q-1118], for which the IC50 – broadly, the concentration at which inhibition is half-maximal – is 110 nM in assay [1] and 1 nM in assay [2].
The corresponding values for `Cc1c(C(=O)N2CCCC(F)(F)CC2)cnn1-c1nn2cccc2c(=O)[nH]1` [Q-1119] are 370 nM and 2 nM.
The corresponding values for `Cc1c(C(=O)N2CCN(C3CCC3(F)F)CC2)cnn1-c1nn2cccc2c(=O)[nH]1` (centres unmarked) [Q-1120] are 97 nM and 1 nM.
For `Cc1c(C(=O)N2CC(c3cccc(F)n3)C2)cnn1-c1nn2cccc2c(=O)[nH]1` [Q-1121], in that order: 70 nM and 1 nM.
Consider `Cc1c(C(=O)N2C3CCC2CC(C(F)(F)F)C3)cnn1-c1nn2cccc2c(=O)[nH]1` (centres unmarked) [Q-1122], for which the values for the concentration for half-maximal inhibition (IC50) in assay [1] and in assay [2] were 25 nM and 1 nM, respectively.
For `Cc1c(C(=O)N2CC3CCCC(C2)C3C(F)(F)F)cnn1-c1nn2cccc2c(=O)[nH]1` (centres unmarked) [Q-1123], in that order: 57 nM and 1 nM.
With `Cc1c(C(=O)N2CCCC(C(F)(F)F)CC2)cnn1-c1nn2cccc2c(=O)[nH]1` (centres unmarked) [Q-1124], the IC50 in assay [1] turned out to be 35 nM; in assay [2] it was 1 nM.
For `Cc1nn(-c2nn3cccc3c(=O)[nH]2)cc1C(=O)N1CCN(CC(F)(F)F)CC1` [Q-1125], in that order: 100 nM and 6 nM.
For `C=C1C2CCCC1CN(C(=O)c1cnn(-c3nn4cccc4c(=O)[nH]3)c1C)C2` [Q-1126], in that order: 48 nM and 1 nM.
For `Cc1c(C(=O)N2CC(c3ccc(F)cn3)C2)cnn1-c1nn2cccc2c(=O)[nH]1` [Q-1128], in that order: 48 nM and 2 nM.
As for `Cc1c(C(=O)N2CC(c3cncc(F)c3)C2)cnn1-c1nn2cccc2c(=O)[nH]1` [Q-1129], the IC50 in assay [1] came out at 50 nM; in assay [2] it was 2 nM.
The corresponding values for `Cc1c(C(=O)N2CC3CCC(C2)C3C(F)(F)F)cnn1-c1nn2cccc2c(=O)[nH]1` (centres unmarked) [Q-1130] are 57 nM and 1 nM.
For `Cc1c(C(=O)N2CCC(C(C(F)F)C(F)(F)F)CC2)cnn1-c1nn2cccc2c(=O)[nH]1` (centres unmarked) [Q-1131], in that order: 27 nM and 1 nM.
As for `CCC1(C(F)(F)F)CCN(C(=O)c2cnn(-c3nn4cccc4c(=O)[nH]3)c2C)CC1` [Q-1132], the IC50 worked out at 40 nM in assay [1] and 1 nM in assay [2].
For `Cc1c(C(=O)N2CCN(c3nc(C(F)(F)F)cs3)CC2)cnn1-c1nn2cccc2c(=O)[nH]1` [Q-1134], in that order: 25 nM and 3 nM.
The corresponding values for `Cc1c(C(=O)N2CCN(c3ncc(-c4ccc(Cl)cc4)o3)CC2)cnn1-c1nn2cccc2c(=O)[nH]1` [Q-1135] are 45 nM and 10 nM.
The corresponding values for `Cc1c(C(=O)N2CCC(c3nc(-c4ccncc4)cs3)CC2)cnn1-c1nc2c(c(=O)[nH]1)CCC2` [Q-1136] are 14 nM and 2 nM.
As for `Cc1c(C(=O)N2CCN(c3nc(C(F)(F)F)co3)CC2)cnn1-c1nn2cccc2c(=O)[nH]1` [Q-1137], the IC50 in assay [1] turned out to be 160 nM; in assay [2], 3 nM.
The corresponding values for `Cc1c(C(=O)N2CCN(c3nc(-c4ccc(Cl)cc4)cs3)CC2)cnn1-c1nn2cccc2c(=O)[nH]1` [Q-1138] are 360 nM and 20 nM.
The corresponding values for `Cc1c(C(=O)N2CCN(c3nc(-c4ccc(C(F)(F)F)cc4)cs3)CC2)cnn1-c1nn2cccc2c(=O)[nH]1` [Q-1139] are 420 nM and 20 nM.
For `Cc1c(C(=O)N2CCN(c3nnc(-c4ccc(Cl)cc4)o3)CC2)cnn1-c1nn2cccc2c(=O)[nH]1` [Q-1140], in that order: 230 nM and 8 nM.
As to `Cc1c(C(=O)N2CCC(C(CCF)C(F)(F)F)CC2)cnn1-c1nn2cccc2c(=O)[nH]1` (centres unmarked) [Q-1141], the IC50 was 19 nM in assay [1] and 1 nM in assay [2].
For `Cc1c(C(=O)Nc2c(C(C)(O)C(F)(F)F)cnn2C(C)C)cnn1-c1nn2cccc2c(=O)[nH]1` (centres unmarked) [Q-1142], in that order: 75 nM and 1 nM.
For `C=C(c1cnn(C(C)C)c1NC(=O)c1cnn(-c2nn3cccc3c(=O)[nH]2)c1C)C(F)(F)F` [Q-1143], in that order: 310 nM and 3 nM.
For `Cc1c(C(=O)N2CC(c3ccc(F)nc3)C2)cnn1-c1nn2cccc2c(=O)[nH]1` [Q-1144], in that order: 70 nM and 1 nM.
On to `Cc1c(C(=O)N2CCN(c3nnc(C(F)(F)F)o3)CC2)cnn1-c1nn2cccc2c(=O)[nH]1` [Q-1145], for which the 50% inhibitory concentration (IC50) was determined as 190 nM in assay [1] and 3 nM in assay [2].
The corresponding values for `Cc1c(C(=O)N2CCc3nc(-c4ccc(Cl)cc4)sc3C2)cnn1-c1nn2cccc2c(=O)[nH]1` [Q-1146] are 380 nM and 5 nM.
`Cc1c(C(=O)N2CCc3nc(-c4ccccc4Cl)sc3C2)cnn1-c1nn2cccc2c(=O)[nH]1` [Q-1147]: the IC50 in assay [1] was determined as 520 nM; in assay [2], 7 nM.
The corresponding values for `Cc1c(C(=O)N2CCc3nc(-c4ccc(C(F)(F)F)cc4)sc3C2)cnn1-c1nn2cccc2c(=O)[nH]1` [Q-1148] are 540 nM and 10 nM.
For `Cc1c(C(=O)N2CCN(c3ncc(-c4ccccc4F)o3)CC2)cnn1-c1nn2cccc2c(=O)[nH]1` [Q-1149], in that order: 210 nM and 5 nM.
For `Cc1c(C(=O)N2CCN(c3ncc(-c4ccccc4Cl)o3)CC2)cnn1-c1nn2cccc2c(=O)[nH]1` [Q-1151], in that order: 310 nM and 8 nM.
For `Cc1c(C(=O)N2CCN(c3nc(-c4ccccc4Cl)cs3)CC2)cnn1-c1nn2cccc2c(=O)[nH]1` [Q-1152], the IC50 in assay [1] is 380 nM; in assay [2] it was 8 nM.
The corresponding values for `Cc1c(C(=O)N2CCN(c3nc(-c4ccccc4C(F)(F)F)cs3)CC2)cnn1-c1nn2cccc2c(=O)[nH]1` [Q-1153] are 630 nM and 8 nM.
As to `Cc1c(C(=O)N2CCN(c3nnc(-c4cccc(Cl)c4)o3)CC2)cnn1-c1nn2cccc2c(=O)[nH]1` [Q-1154], the figures for the IC50 in assay [1] and in assay [2] were 350 nM and 5 nM, respectively.
The corresponding values for `Cc1c(C(=O)N2CCN(c3nc(-c4cccc(Cl)c4)cs3)CC2)cnn1-c1nn2cccc2c(=O)[nH]1` [Q-1155] are 270 nM and 10 nM.
For `Cc1c(C(=O)N2CCN(c3nc(-c4cccc(F)c4)cs3)CC2)cnn1-c1nn2cccc2c(=O)[nH]1` [Q-1156], in that order: 110 nM and 6 nM.
The corresponding values for `Cc1c(C(=O)N2CCN(c3ncc(-c4cccc(F)c4)o3)CC2)cnn1-c1nn2cccc2c(=O)[nH]1` [Q-1157] are 490 nM and 4 nM.
On to `Cc1c(C(=O)N2CCc3nc(-c4ccccn4)sc3C2)cnn1-c1nn2cccc2c(=O)[nH]1` [Q-1158], for which the IC50 was found to be 130 nM in assay [1] and 2 nM in assay [2].
The corresponding values for `Cc1c(C(=O)N2CCN(c3ncc(-c4cccc(C(F)(F)F)c4)o3)CC2)cnn1-c1nn2cccc2c(=O)[nH]1` [Q-1159] are 600 nM and 20 nM.
For `Cc1c(C(=O)N2CCc3nc(-c4ccc(F)cc4)sc3C2)cnn1-c1nn2cccc2c(=O)[nH]1` [Q-1160], in that order: 110 nM and 3 nM.
As for `Cc1c(C(=O)N2CCN(c3ncc(-c4ccncc4)o3)CC2)cnn1-c1nn2cccc2c(=O)[nH]1` [Q-1161], the half-inhibitory concentration (IC50) worked out at 310 nM in assay [1] and 3 nM in assay [2].
For `Cc1c(C(=O)N2CCN(c3ncc(-c4cccnc4)o3)CC2)cnn1-c1nn2cccc2c(=O)[nH]1` [Q-1162], in that order: 95 nM and 1 nM.
For `Cc1c(C(=O)N2CCN(c3nc(-c4ccnc(Cl)c4)cs3)CC2)cnn1-c1nn2cccc2c(=O)[nH]1` [Q-1163], in that order: 68 nM and 2 nM.
For `Cc1c(C(=O)N2CCN(c3nc(-c4cccnc4)cs3)CC2)cnn1-c1nn2cccc2c(=O)[nH]1` [Q-1164], in that order: 37 nM and 1 nM.
Consider `Cc1c(C(=O)N2CCN(c3nc(-c4ccccc4F)cs3)CC2)cnn1-c1nn2cccc2c(=O)[nH]1` [Q-1165], for which the values for the half-inhibitory concentration (IC50) in assay [1] and in assay [2] were 190 nM and 6 nM, respectively.
For `Cc1c(C(=O)N2CCc3nc(-c4cccc(Cl)c4)sc3C2)cnn1-c1nn2cccc2c(=O)[nH]1` [Q-1166], in that order: 20 nM and 5 nM.
For `Cc1c(C(=O)N2CCc3nc(-c4cccc(C(F)(F)F)c4)sc3C2)cnn1-c1nn2cccc2c(=O)[nH]1` [Q-1167], in that order: 81 nM and 10 nM.
